Consider four molecules from patent US20260184721A2, “FUSED RING COMPOUND, CONJUGATE THEREOF AND USE THEREOF” (Keymed Biosciences (Chengdu) Co., Ltd., priority 2022, published 2026).

One assay deals with SK-BR-3 tumor cells. Description: In vitro proliferation inhibitory activity of compounds of Formula (GH) on SK-BR-3 tumor cells (CCK8). The class given is cell-based. The note with it: Homo sapiens, SK-BR-3, 72 h, 3 days of culture, read-out: IC50 for inhibiting proliferation of SK-BR-3 cells in vitro. As for the experimental part: The objective of this experiment is to detect the in vitro killing activity of the compound of Formula (GH) of the present disclosure on SK-BR-3 tumor cells (human breast cancer cells, Wuhan Procell, Catalog No. CL-0211). The cells were treated with different concentrations of the compound in vitro. After 3 days of culture, the number of viable cells was detected using CCK8 (Cell Counting Kit-8, Catalog No. TS547) reagents, and the in vitro activity of the test compound was evaluated according to the IC50 value.
Taking the test method of in vitro killing activity on SK-BR-3 cells as an example, the following test was performed. […] After the cells were completely digested, 10 mL of cell culture medium containing 2% FBS was added to wash out the digested cells, centrifugation was performed at 300 g for 5 min, the supernatant was discarded, and then 10 to 20 mL of cell culture medium containing 2% FBS was added to resuspend the cells to prepare a single cell suspension. • (3) Cell plating: The SK-BR-3 single cell suspension was mixed well, the viable cell density was adjusted to 6×10^4 cells/mL with the cell culture medium containing 2% FBS, the cell suspension after density adjustment was mixed well, and added to a 96-well cell culture plate at 100 μL/well. Only 200 μL of PBS was added to the peripheral wells of the 96-well plate. The culture plate was incubated in an incubator for 24 hours (37° C., 5% CO2). • (4) Compound preparation: The compound was dissolved in DMSO (dimethyl sulfoxide, SIGMA) to prepare a 2 mM stock solution.
The starting concentrations of small molecule compounds and Dxd were both 600 nM, and the preparation method was as follows.
Then, 315 μL of different samples to be tested were added to the first column of a 96-well U-bottomed drug distribution plate, and the sample concentration was 1200 nM; 210 μL of the cell culture medium containing 2% FBS was added to each well of the second to tenth columns. 105 μL of the sample was taken from the first column and added to the 210 μL cell culture medium in the second column and mixed well, and 105 μL was taken and added to the third column, and so on to the tenth column. • (5) Sample loading operation: 100 μL of the sample to be tested of different concentrations was added to the culture plate, and two replicate wells were set for each sample. The culture plate was incubated in an incubator for 3 days (37° C., 5% CO2). • (6) Color development operation: The 96-well cell culture plate was taken out, the cell culture supernatant was removed by tapping, 100 μL of the RPMI 1640 basal medium (without FBS) containing 10% CCK8 was added, and then it was incubated in an incubator for about 1.5 hours (37° C., 5% CO2). • (7) Plate reading operation: The 96-well cell culture plate was taken out, placed in an ELISA reader (MD SpectraMax i3X), and A450 was determined by the ELISA reader. • (8) Data analysis: Microsoft Excel and Graphpad Prism 5 were used to process and analyze the data.

For the next assay, the system named is NCI-N87 tumor cells. In words: In vitro proliferation inhibitory activity of compounds of Formula (GH) on NCI-N87 tumor cells (CCK8). The note with it: Homo sapiens, read-out: IC50 for inhibiting proliferation of NCI-N87 cells in vitro. The format is cell-based, human. As for the experimental part: The objective of this experiment is to detect the in vitro killing activity of the compound of Formula (GH) disclosed in the present invention on NCI-N87 tumor cells (human gastric cancer cells, Cell Resource Center, Institute of Basic Medicine, Chinese Academy of Medical Sciences, Catalog No. 3111C0001CCC000481). The cells were treated with different concentrations of the compound in vitro, and after 6 days of culture, the number of viable cells was detected using CCK8 (Cell Counting Kit-8, Catalog No. TS547) reagents, and the in vitro activity of the test compound was evaluated according to the IC50 value.
• (1) Cell culture: NCI-N87 cells were cultured in the RPMI 1640 medium containing 2% FBS (Shanghai BasalMedia Technologies Co., Ltd., Catalog No. L210KJ). • (2) Cell preparation: NCI-N87 cells in the logarithmic growth phase were taken, washed once with PBS (phosphate buffered saline, Shanghai BasalMedia Technologies Co., Ltd., Catalog No. E211004), added with 1 mL of trypsin (0.25% Trypsin-EDTA (1×), Shanghai BasalMedia Technologies Co., Ltd., Catalog No. A121002) to allow digestion for 2 to 3 minutes. After the cells were completely digested, 10 mL of the cell culture medium was added to wash off and obtain the digested cells, centrifugation was performed at 300 times gravitational acceleration (g) for 5 min, the supernatant was discarded, then 10 mL of PBS was added to wash the cells once, centrifugation was performed at 300 times gravitational acceleration (g) for 5 minutes, the supernatant was discarded, and 10 mL of the cell culture medium containing 2% FBS was added to resuspend the cells to prepare a single cell suspension. • (3) Cell plating: The NCI-N87 single cell suspension was mixed, the density of live cells was adjusted to 3×10^4 cells/mL with 2% FBS cell culture medium, the cell suspension after density adjustment was mixed well, and added to a 96-well cell culture plate at 100 μL/well. Only 200 μL of PBS was added to each of the peripheral wells of the 96-well plate. The plate was incubated in an incubator for 24 hours (37° C., 5% CO2). • (4) Preparation of sample to be tested:
The sample to be tested was diluted to 3200 nM with cell culture medium containing 2% FBS, then 300 μL of the sample was added to the first well of a 96-well U-bottomed plate with a sample concentration of 3200 nM; and 210 μL of cell culture medium containing 2% FBS was added to each well of the second to tenth columns. 70 μL of the sample was taken from the first column and added to the 210 μL cell culture medium in the second column and mixed well, 70 μL was taken and added to the third column, and so on to the ninth column. • (5) Sample loading operation: 100 μL of the sample to be tested with different concentrations was added to the culture plate, two replicate wells were set for each sample. The culture plate was incubated in an incubator for 6 days (37° C., 5% CO2). • (6) Color development operation: The 96-well cell culture plate was taken out, the supernatant of the culture medium was removed by tapping, 100 μL of 10% CCK8 (prepared with RPMI 1640 basal culture medium, without FBS) solution was added to each well, and incubation was performed in an incubator for 2 hours. • (7) Plate reading operation: The 96-well cell culture plate was taken out, placed in an ELISA reader (SpectraMax i3X), and A450 was determined by the ELISA reader. • (8) Data analysis: Microsoft Excel and Graphpad Prism 5 were used to process and analyze the data.

Where two headings read alike, the source gives them in different places.

Turning to `Cc1c(F)cc2nc3c(c4c2c1CC[C@@H]4NC(=O)[C@@H](C)O)Cn1c-3cc2c(c1=O)COC(=O)[C@]2(O)CC1CC1` [Compound 3-A, (R)-N-((1S,9S)-9-(cyclopropylmethyl)-5-fluoro-9-hydroxy-4-methyl-10,13-dioxo-2,3,9,10,13,15-hexahydro-1H,12H-benzo[de]pyrano[3′,4′:6,7]indolizino[1,2-b]quinolin-1-yl)-2-hydroxypropanamide], the IC50 is 5.91 nM with SK-BR-3 tumor cells and 5.28 nM in the assay on NCI-N87 tumor cells (NCI-N87, 6 days of culture, CCK8).

Take `Cc1c(F)cc2nc3c(c4c2c1CC[C@@H]4NC(=O)[C@@H](O)C1CC1)Cn1c-3cc2c(c1=O)COC(=O)[C@]2(O)CC1CC1` [Compound 4-A, (S)-2-Cyclopropyl-N-((1S,9S)-9-(cyclopropylmethyl)-5-fluoro-9-hydroxy-4-methyl-10,13-dioxo-2,3,9,10,13,15-hexahydro-1H,12H-benzo[de]pyrano[3′,4′:6,7]indolizino[1,2-b]quinolin-1-yl)-2-hydroxyacetamide]: the IC50 with SK-BR-3 tumor cells came to 6.42 nM; in the assay with NCI-N87 tumor cells (NCI-N87, […]) it was 2.4 nM.

`Cc1c(F)cc2nc3c(c4c2c1CC[C@H]4NC(=O)[C@H](O)C1CC1)Cn1c-3cc2c(c1=O)COC(=O)[C@]2(O)CC1CC1` [Compound 5-B, (R)-2-Cyclopropyl-N-((1R,9S)-9-(cyclopropylmethyl)-5-fluoro-9-hydroxy-4-methyl-10,13-dioxo-2,3,9,10,13,15-hexahydro-1H,12H-benzo[de]pyrano[3′,4′:6,7]indolizino[1,2-b]quinolin-1-yl)-2-hydroxyacetamide]: the IC50 was 4.92 nM in the assay on SK-BR-3 tumor cells and 2.96 nM with NCI-N87 tumor cells (NCI-N87, […]).

Turning to `CC[C@@]1(O)C(=O)OCc2c1cc1n(c2=O)Cc2c-1nc1cc(F)c3c(c1c2CNC(=O)[C@H](C)O)CCC3` [Compound 25, (S)-N-(((S)-8-Ethyl-4-fluoro-8-hydroxy-9,12-dioxo-2,3,8,9,12,14-hexahydro-1H,11H-cyclopenta[f]pyrano[3′,4′:6,7]indolizino[1,2-b]quinolin-15-yl)methyl)-2-hydroxypropanamide], the IC50 with SK-BR-3 tumor cells was 5.41 nM; in the assay with NCI-N87 tumor cells (NCI-N87, […]) it was 5.46 nM.
